Structures can show the parent of a compound that is named as a salt. Where two headings read alike, the source gives them in different places. Each block holds one molecule with its values, some of them ahead of it. Starred links: 1 amine or outer side, 2 acyl side, 3 side chain; linkers in the order of their positions; H or OH if unused. Positions of bridges follow the written chain, without caps; N, C: chain ends. Non-standard residues stand in square brackets, D forms with d. Residues, ends and D or L forms follow the SMILES beside them. Trp(5-OH) = N[C@@H](Cc1c[nH]c2ccc(O)cc12)C(=O)O; NMePhe(4-F) = CN[C@@H](Cc1ccc(F)cc1)C(=O)O; X2 = O=C([C@H](Cc1ccc(O)nc1)N[*:1])[*:2]; NMehPhe = CN[C@@H](CCc1ccccc1)C(=O)O; NMeAhp(2) = CCCCC[C@H](NC)C(=O)O; Aad = N[C@@H](CCCC(=O)O)C(=O)O; Gly(cPr) = N[C@H](C(=O)O)C1CC1; NMeK = CN[C@@H](CCCCN)C(=O)O; NMeDap = CN[C@@H](CN)C(=O)O; NMeS = CN[C@@H](CO)C(=O)O
What was measured:
human HER2 (23-652) [1] = target: T1, human HER2 (23-652) (Homo sapiens, UniProt P04626); experiment: TR-FRET competition assay for peptide potency, human HER2; format: binding; design: towards human HER2 (23-652) and mouse HER2 (23-653); made in house; host or cells: mammalian cells
human HER2 (23-652) [2] = target: T1, human HER2 (23-652); experiment: Surface plasmon resonance (SPR) for assessment of peptide affinity, human HER2; format: binding; design: towards human HER2 (23-652) and mouse HER2 (23-653); made in house
In short: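 Binding kinetics fitted from sensorgrams with 280 s peptide association then 3000 s dissociation (30 uL/min), using HER2 (23-652) either directly immobilized (SA/CM5) or anti-Fc-captured; 3 M magnesium chloride used for regeneration.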

mouse HER2 (23-653) [3] = target: T2, mouse HER2 (23-653) (Mus musculus, UniProt P70424); experiment: Surface plasmon resonance (SPR) for assessment of peptide affinity, mouse HER2; format: binding; design: mouse HER2 (23-653) using a Cy5 labeled peptide as a probe; made in house; settings: SPR, mouse HER2 extracellular domain, 25° C., 1:1 binding model; read-out: moHER2-SPR-ONC KD
From the text: Each protein was immobilized either onto a SA sensorchip (Cytiva, BR-1005-31) or CM5 sensorchip (Cytiva, BR-1005-30) to a density of 800-2000 RU.

mouse HER2 (23-653) [4] = target: T2, mouse HER2 (23-653); experiment: TR-FRET competition assay for peptide potency, mouse HER2; format: binding; design: mouse HER2 (23-653) using a Cy5 labeled peptide as a probe; made in house; host or cells: mammalian cells; settings: TR-FRET competition with Cy5 labeled peptide probe, 0.1 nM mouse HER2, 24 h incubation; read-out: moHER2 TR-FRET IC50
[5] = amide bond, 30-membered ring, PyAOP/DIEA, DMF, resin, […], 50.0 °C, with chain assembly
[6] = SPR, human HER2 extracellular domain, 25° C., 1:1 binding model, read-out: huHER2-SPR-ONC KD

Molecule: Fmoc-hGlu-Tyr-Ser-MehPhe-MeLys(Ac)-Trp(5-OH)-Trp-Gly(cPr)-MeDap-MePhe(4-F)-Lys(N3)-NH2?
ring closure, yield after HPLC (the molecule shown is the open-chain precursor, amide bond, 31-membered ring, HATU/2,6-lutidine, DMF/DCM 1:10, 0.76 mM): 64%

Molecule: 2-((1E,3E)-5-((E)-1-(6-((3-(((3S,6S,9S,12S,15S,18S,21S,24S,27S)-9-((1H-indol-3-yl)methyl)-15-(4-acetamidobutyl)-3-(((S)-1-(((S)-1-amino-6-(4-(carboxymethyl)piperazine-1-carboxamido)-1-oxohexan-2-yl)amino)-3-(4-fluorophenyl)-1-oxopropan-2-yl)(methyl)carbamoyl)-12-((5-hydroxy-1H-indol-3-yl)methyl)-24-(4-hydroxybenzyl)-6-((S)-1-hydroxyethyl)-21-(hydroxymethyl)-4,16,19-trimethyl-5,8,11,14,17,20,23,26,30-nonaoxo-18-phenethyl-1,4,7,10,13,16,19,22,25-nonaazacyclotriacontan-27-yl)amino)-3-oxopropyl)amino)-6-oxohexyl)-3,3-dimethyl-5-sulfoindolin-2-ylidene)penta-1,3-dien-1-yl)-1-ethyl-3,3-dimethyl-3H-indol-1-ium-5-sulfonate TFA salt
ring closure, yield after HPLC [5]: 2%

Molecule: (3R,6S,9S,12S,15S,18S,21S,24S,27S)-9-((1H-indol-3-yl)methyl)-27-amino-N—((S)-1-amino-3-(4-fluorophenyl)-1-oxopropan-2-yl)-6-cyclopropyl-12-((5-hydroxy-1H-indol-3-yl)methyl)-24-(4-hydroxybenzyl)-15,21-bis(hydroxymethyl)-N,4,16,19-tetramethyl-5,8,11,14,17,20,23,26,30-nonaoxo-18-phenethyl-1-thia-4,7,10,13,16,19,22,25,29-nonaazacyclohentriacontane-3-carboxamide TFA salt
ring closure, yield after HPLC (thioether bond, 31-membered ring, DIEA, then pyrrolidine, ACN/water, […], with chain assembly): 1%

Molecule: (3R,6S,9S,12S,15S,18S,21S,24S,27S)-9-((1H-indol-3-yl)methyl)-27-acetamido-N—((S)-1-amino-3-(4-fluorophenyl)-1-oxopropan-2-yl)-6-cyclopropyl-12-((5-hydroxy-1H-indol-3-yl)methyl)-24-(4-hydroxybenzyl)-15,21-bis(hydroxymethyl)-N,4,16,19-tetramethyl-5,8,11,14,17,20,23,26,30-nonaoxo-18-phenethyl-1-thia-4,7,10,13,16,19,22,25,29-nonaazacyclohentriacontane-3-carboxamide
ring closure, yield after HPLC (thioether bond, 31-membered ring, DIEA, ACN/water, […], with chain assembly): 6%

Molecule: 2-(4-(((S)-5-((S)-2-((3S,6S,9S,12S,15S,18S,21S,24S,27S)-9-((1H-indol-3-yl)methyl)-15-(4-acetamidobutyl)-27-(3-aminopropanamido)-12-((5-hydroxy-1H-indol-3-yl)methyl)-24-(4-hydroxybenzyl)-6-((S)-1-hydroxyethyl)-21-(hydroxymethyl)-N,4,16,19-tetramethyl-5,8,11,14,17,20,23,26,30-nonaoxo-18-phenethyl-1,4,7,10,13,16,19,22,25-nonaazacyclotriacontane-3-carboxamido)-3-(4-fluorophenyl)propanamido)-6-amino-6-oxohexyl)carbamoyl)piperazin-1-yl) acetic acid TFA salt
ring closure, yield after HPLC (amide bond, 30-membered ring, DIC/Oxyma, DMF, resin, […], 75.0 °C, with chain assembly): 4.7%

Molecule: Ac-hGlu-Tyr-Ser-MehPhe-MeLys(COCH2OH)-Trp(5-OH)-Trp-Gly(cPr)-MeDap-MePhe(4-F)-Lys(Alloc)-NH2?
ring closure, yield after HPLC (the molecule shown is the open-chain precursor, amide bond, 31-membered ring, PyAOP/DIEA, then Pd(PPh3)4/PhSiH3, DMF, 5.0 mM, with chain assembly): 10.3%

Molecule: 2-(4-(((S)-5-((S)-2-((3S,6S,9S,12S,15S,18S,21S,24S,27S)-9-((1H-indol-3-yl)methyl)-15-(4-acetamidobutyl)-27-(5,39-dioxo-43-((3aS,4S,6aR)-2-oxohexahydro-1H-thieno[3,4-d]imidazol-4-yl)-8,11,14,17,20,23,26,29,32,35-decaoxa-4,38-diazatritetracontanamido)-12-((5-hydroxy-1H-indol-3-yl)methyl)-24-(4-hydroxybenzyl)-6-((S)-1-hydroxyethyl)-21-(hydroxymethyl)-N,4,16,19-tetramethyl-5,8,11,14,17,20,23,26,30-nonaoxo-18-phenethyl-1,4,7,10,13,16,19,22,25-nonaazacyclotriacontane-3-carboxamido)-3-(4-fluorophenyl)propanamido)-6-amino-6-oxohexyl)carbamoyl)piperazin-1-yl) acetic acid TFA salt
ring closure, yield after HPLC [5]: 0.5%

IC50 (human HER2 (23-652) [1]; read-out: huHER2 TR-FRET IC50): 111 nM
Kd (human HER2 (23-652) [2]; [6]): 97 nM
Kd (mouse HER2 (23-653) [3]): 98 nM
IC50 (mouse HER2 (23-653) [4]): 224 nM
Molecule: CC(=O)N[C@H]1CCC(=O)NC[C@@H](C(=O)N(C)[C@@H](Cc2ccc(F)cc2)C(N)=O)N(C)C(=O)[C@H](C2CC2)NC(=O)[C@H](Cc2c[nH]c3ccccc23)NC(=O)[C@H](Cc2c[nH]c3ccc(O)cc23)NC(=O)[C@H](CO)N(C)C(=O)[C@H](CCc2ccccc2)N(C)C(=O)[C@H](CO)NC(=O)[C@H](Cc2ccc(O)nc2)NC1=O [Example A1, (3S,6S,9S,12S,15S,18S,21S,24S,27S)-9-((1H-indol-3-yl)methyl)-27-acetamido-N—((S)-1-amino-3-(4-fluorophenyl)-1-oxopropan-2-yl)-6-cyclopropyl-12-((5-hydroxy-1H-indol-3-yl)methyl)-15,21-bis(hydroxymethyl)-24-((6-hydroxypyridin-3-yl)methyl)-N,4,16,19-tetramethyl-5,8,11,14,17,20,23,26,30-nonaoxo-18-phenethyl-1,4,7,10,13,16,19,22,25-nonaazacyclotriacontane-3-carboxamide] (Ac-E[X2]S[NMehPhe][NMeS][Trp(5-OH)]W[Gly(cPr)][NMeDap][NMePhe(4-F)]-NH2; lactam 1-9)

IC50 (human HER2 (23-652) [1]; read-out: huHER2 TR-FRET IC50): 27 nM
Kd (human HER2 (23-652) [2]; [6]): 24 nM
Kd (mouse HER2 (23-653) [3]): 24 nM
IC50 (mouse HER2 (23-653) [4]): 55 nM
Molecule: CCCCC[C@@H](C(N)=O)N(C)C(=O)[C@@H]1CNC(=O)CCC[C@H](NC(C)=O)C(=O)N[C@@H](Cc2ccc(O)cc2)C(=O)N[C@@H](CO)C(=O)N(C)[C@@H](CCc2ccccc2)C(=O)N(C)[C@@H](CCCCNC(C)=O)C(=O)N[C@@H](Cc2c[nH]c3ccc(O)cc23)C(=O)N[C@@H](Cc2c[nH]c3ccccc23)C(=O)N[C@@H](C2CC2)C(=O)N1C [Example A15, (3S,6S,9S,12S,15S,18S,21S,24S,27S)-9-((1H-indol-3-yl)methyl)-27-acetamido-15-(4-acetamidobutyl)-N-((S)-1-amino-1-oxoheptan-2-yl)-6-cyclopropyl-12-((5-hydroxy-1H-indol-3-yl)methyl)-24-(4-hydroxybenzyl)-21-(hydroxymethyl)-N,4,16,19-tetramethyl-5,8,11,14,17,20,23,26,31-nonaoxo-18-phenethyl-1,4,7,10,13,16,19,22,25-nonaazacyclohentriacontane-3-carboxamide] (Ac-[Aad]YS[NMehPhe][NMeK](Ac)[Trp(5-OH)]W[Gly(cPr)][NMeDap][NMeAhp(2)]-NH2; lactam 1-9)

Molecule: CN1C(=O)[C@H](CO)NC(=O)[C@H](Cc2ccc(O)cc2)NC(=O)[C@@H](N)CCCC(=O)NC[C@@H](C(=O)N(C)[C@@H](Cc2ccc(F)cc2)C(N)=O)N(C)C(=O)[C@H](C2CC2)NC(=O)[C@H](Cc2c[nH]c3ccccc23)NC(=O)[C@H](Cc2c[nH]c3ccc(O)cc23)NC(=O)[C@H](CO)N(C)C(=O)[C@@H]1CCc1ccccc1 [Example A36, (3S,6S,9S,12S,15S,18S,21S,24S,27S)-9-((1H-indol-3-yl)methyl)-27-amino-N-((S)-1-amino-3-(4-fluorophenyl)-1-oxopropan-2-yl)-6-cyclopropyl-12-((5-hydroxy-1H-indol-3-yl)methyl)-24-(4-hydroxybenzyl)-15,21-bis(hydroxymethyl)-N,4,16,19-tetramethyl-5,8,11,14,17,20,23,26,31-nonaoxo-18-phenethyl-1,4,7,10,13,16,19,22,25-nonaazacyclohentriacontane-3-carboxamide TFA salt] (H-[Aad]YS[NMehPhe][NMeS][Trp(5-OH)]W[Gly(cPr)][NMeDap][NMePhe(4-F)]-NH2; lactam 1-9)
IC50 (human HER2 (23-652) [1]; huHER2 TR-FRET IC50, TR-FRET competition with Cy5 labeled peptide probe, 0.1 nM human HER2, 24 h incubation): 52 nM
Kd (human HER2 (23-652) [2]): 38 nM
Kd (mouse HER2 (23-653) [3]): 34 nM
IC50 (mouse HER2 (23-653) [4]): 102 nM
